From patent publication US20240317721A1, “PYRAZOLYL DERIVATIVES AS INHIBITORS OF THE KRAS MUTANT PROTEIN” (NOVARTIS AG, priority 2021, published 2024)

What follows are compounds tested against KRasG12C (M1-K169, biotinylated on the N-terminus) (Homo sapiens (Human), UniProt P01116, G12C) (assay: Covalent competition assay: scintillation proximity assay (SPA) quantifying covalent modification of KRASG12C). Conditions: competition with radiolabeled covalent probe (Compound B/Compound A), 2 hours incubation, 10 nM KRasG12C.
Format: binding
Summary of the method: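 Scintillation proximity readout after streptavidin bead capture (30 min) of biotinylated KRasG12C(M1-K169):GDP, 10 nM final, which was covalently labelled over 2 h by 25 nM radio-probe plus 475 nM cold probe unless blocked by compound.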

| IC50 [µM] | Structure (SMILES) |
| --- | --- |
| > 50 | C=CC(=O)N1CC2(CC(n3nc(N4CCN(C(C)=O)CC4)c(-c4c(Cl)ccc5[nH]ncc45)c3C)C2)C1C (single isomer, unassigned) [Example 195b, 1-(6-(3-(4-Acetylpiperazin-1-yl)-4-(5-chloro-1H-indazol-4-yl)-5-methyl-1H-pyrazol-1-yl)-1-methyl-2-azaspiro[3.3]heptan-2-yl)prop-2-en-1-one] |
| > 50 | C=CC(=O)N1CC2(CC(n3nc(N4CCN(C(C)=O)CC4)c(-c4c(Cl)ccc5[nH]ncc45)c3C)C2)C1C (single isomer, unassigned) [Example 196a, 1-(6-(3-(4-acetylpiperazin-1-yl)-4-(5-chloro-1H-indazol-4-yl)-5-methyl-1H-pyrazol-1-yl)-1-methyl-2-azaspiro[3.3]heptan-2-yl)prop-2-en-1-one] |
| 9 | C=CC(=O)N1CC2(CC(n3nc(N4CCN(C(C)=O)CC4)c(-c4c(Cl)ccc5[nH]ncc45)c3C)C2)C1C (single isomer, unassigned) [Example 196b, 1-(6-(3-(4-acetylpiperazin-1-yl)-4-(5-chloro-1H-indazol-4-yl)-5-methyl-1H-pyrazol-1-yl)-1-methyl-2-azaspiro[3.3]heptan-2-yl)prop-2-en-1-one] |
| > 50 | C=CC(=O)N1CC2(CC(n3nc(N4CCN(C(C)=O)CC4)c(-c4c(Cl)ccc5[nH]ncc45)c3C)C2)C1C (single isomer, unassigned) [Example 197a, 1-(6-(3-(4-acetylpiperazin-1-yl)-4-(5-chloro-1H-indazol-4-yl)-5-methyl-1H-pyrazol-1-yl)-1-methyl-2-azaspiro[3.3]heptan-2-yl)prop-2-en-1-one] |
| 49.7 | C=CC(=O)N1CC2(CC(n3nc(N4CCN(C(C)=O)CC4)c(-c4c(Cl)ccc5[nH]ncc45)c3C)C2)C1C (single isomer, unassigned) [Example 197b, 1-(6-(3-(4-acetylpiperazin-1-yl)-4-(5-chloro-1H-indazol-4-yl)-5-methyl-1H-pyrazol-1-yl)-1-methyl-2-azaspiro[3.3]heptan-2-yl)prop-2-en-1-one] |
| > 50 | C=CC(=O)N1CC2(CC(n3nc(N4CCN(C(C)=O)CC4)c(-c4c(Cl)ccc5[nH]ncc45)c3C)C2)C1C (single isomer, unassigned) [Example 198a, 1-(6-(3-(4-acetylpiperazin-1-yl)-4-(5-chloro-1H-indazol-4-yl)-5-methyl-1H-pyrazol-1-yl)-1-methyl-2-azaspiro[3.3]heptan-2-yl)prop-2-en-1-one] |
| > 50 | C=CC(=O)N1CC2(CC(n3nc(N4CCN(C(C)=O)CC4)c(-c4c(Cl)ccc5[nH]ncc45)c3C)C2)C1C (single isomer, unassigned) [Example 198b, 1-(6-(3-(4-acetylpiperazin-1-yl)-4-(5-chloro-1H-indazol-4-yl)-5-methyl-1H-pyrazol-1-yl)-1-methyl-2-azaspiro[3.3]heptan-2-yl)prop-2-en-1-one] |
| > 5 | C=CC(=O)N1CC2(CC(n3nc(N4CCN(C[C@@H]5COCCO5)C[C@]4(C)CC)c(-c4c(Cl)c(C)cc5[nH]ncc45)c3C)C2)C1C (single isomer, unassigned) [Example 199a] |
| 0.037 | C=CC(=O)N1CC2(CC(n3nc(N4CCN(C[C@@H]5COCCO5)C[C@]4(C)CC)c(-c4c(Cl)c(C)cc5[nH]ncc45)c3C)C2)C1C (single isomer, unassigned) [Example 199b] |
| > 5 | C=CC(=O)N1C[C@]2(C[C@H](n3nc(N4CCN(C[C@@H]5COCCO5)C[C@]4(C)CC)c(-c4c(Cl)c(C)cc5[nH]ncc45)c3C)C2)[C@H]1C (single isomer, unassigned) [Example 200a] |
| 0.023 | C=CC(=O)N1C[C@]2(C[C@H](n3nc(N4CCN(C[C@@H]5COCCO5)C[C@]4(C)CC)c(-c4c(Cl)c(C)cc5[nH]ncc45)c3C)C2)[C@H]1C (single isomer, unassigned) [Example 200b] |
| 4.3 | C=CC(=O)N1C[C@]2(C[C@H](n3nc(N4CC[C@@H](CN5CCN(C6COC6)CC5)CC4(C)C)c(-c4c(Cl)c(Cl)cc5[nH]ncc45)c3C)C2)[C@H]1C (single isomer, unassigned) [Example 201a] |
| 0.017 | C=CC(=O)N1C[C@]2(C[C@H](n3nc(N4CC[C@@H](CN5CCN(C6COC6)CC5)CC4(C)C)c(-c4c(Cl)c(Cl)cc5[nH]ncc45)c3C)C2)[C@H]1C (single isomer, unassigned) [Example 201b] |
| > 5 | C=CC(=O)N1CC2(CC(n3nc(N4CCC5(CN(C)CCO5)CC4(C)C)c(-c4c(Cl)c(C)cc5[nH]ncc45)c3C)C2)C1 (single isomer, unassigned) [Example 207a, 1-(6-(4-(5-chloro-6-methyl-1H-indazol-4-yl)-5-methyl-3-(4,8,8-trimethyl-1-oxa-4,9-diazaspiro[5.5]undecan-9-yl)-1H-pyrazol-1-yl)-2-azaspiro[3.3]heptan-2-yl)prop-2-en-1-one] |
| 0.02 | C=CC(=O)N1CC2(CC(n3nc(N4CCC5(CN(C)CCO5)CC4(C)C)c(-c4c(Cl)c(C)cc5[nH]ncc45)c3C)C2)C1 (single isomer, unassigned) [Example 207b, 1-(6-(4-(5-chloro-6-methyl-1H-indazol-4-yl)-5-methyl-3-(4,8,8-trimethyl-1-oxa-4,9-diazaspiro[5.5]undecan-9-yl)-1H-pyrazol-1-yl)-2-azaspiro[3.3]heptan-2-yl)prop-2-en-1-one] |
| 0.064 | C=CC(=O)N1CC2(CC(n3nc(N4CCC5(CN(C)CCO5)CC4(C)C)c(-c4c(Cl)c(C)cc5[nH]ncc45)c3C)C2)C1 (single isomer, unassigned) [Example 208a, 1-(6-(4-(5-chloro-6-methyl-1H-indazol-4-yl)-5-methyl-3-(4,8,8-trimethyl-1-oxa-4,9-diazaspiro[5.5]undecan-9-yl)-1H-pyrazol-1-yl)-2-azaspiro[3.3]heptan-2-yl)prop-2-en-1-one] |
| 3.8 | C=CC(=O)N1CC2(CC(n3nc(N4CCC5(CN(C)CCO5)CC4(C)C)c(-c4c(Cl)c(C)cc5[nH]ncc45)c3C)C2)C1 (single isomer, unassigned) [Example 208b, 1-(6-(4-(5-chloro-6-methyl-1H-indazol-4-yl)-5-methyl-3-(4,8,8-trimethyl-1-oxa-4,9-diazaspiro[5.5]undecan-9-yl)-1H-pyrazol-1-yl)-2-azaspiro[3.3]heptan-2-yl)prop-2-en-1-one] |
| 1.1 | C=CC(=O)N1CC2(CC(n3nc(N4CCC(N5CC(OC)C5)CC4(C)C)c(-c4c(Cl)c(Cl)cc5[nH]ncc45)c3C)C2)C1 (single isomer, unassigned) [Example 209a, 1-(6-(4-(5,6-dichloro-1H-indazol-4-yl)-3-(4-(3-methoxyazetidin-1-yl)-2,2-dimethylpiperidin-1-yl)-5-methyl-1H-pyrazol-1-yl)-2-azaspiro[3.3]heptan-2-yl)prop-2-en-1-one] |
| 0.012 | C=CC(=O)N1CC2(CC(n3nc(N4CCC(N5CC(OC)C5)CC4(C)C)c(-c4c(Cl)c(Cl)cc5[nH]ncc45)c3C)C2)C1 (single isomer, unassigned) [Example 209b, 1-(6-(4-(5,6-dichloro-1H-indazol-4-yl)-3-(4-(3-methoxyazetidin-1-yl)-2,2-dimethylpiperidin-1-yl)-5-methyl-1H-pyrazol-1-yl)-2-azaspiro[3.3]heptan-2-yl)prop-2-en-1-one] |
